Source: patent US8664257B2, “Oxygen-substituted 3-heteroaroylamino-propionic acid derivatives and their use as pharmaceuticals” (Sanofi, priority 2010, dated 2014)

Each compound was assayed against T1, Recombinant human cathepsin A (Homo sapiens, UniProt P10619) (assay: Cathepsin A inhibitory activity). Conditions: pharmacological test "Cathepsin A inhibitory activity"; IC50 given as class A/B/C; read-out: Activity (2): Cathepsin A inhibitory activity, IC50 class.
T1 construct: Recombinant human cathepsin A (residues 29-480, with a C-terminal 10-His tag); 10-His (C); purchased R&D Systems 1049-SE
T1 sequence (P10619 29-312 limits assumed): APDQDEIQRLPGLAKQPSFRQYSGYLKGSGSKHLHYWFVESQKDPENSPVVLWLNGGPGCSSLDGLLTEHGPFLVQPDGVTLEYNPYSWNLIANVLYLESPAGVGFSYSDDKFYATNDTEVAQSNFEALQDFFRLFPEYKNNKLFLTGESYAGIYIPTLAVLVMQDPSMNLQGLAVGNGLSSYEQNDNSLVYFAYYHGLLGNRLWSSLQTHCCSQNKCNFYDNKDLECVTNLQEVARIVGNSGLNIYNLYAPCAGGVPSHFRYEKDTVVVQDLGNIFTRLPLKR
T1 sequence (P10619 327-480 limits assumed): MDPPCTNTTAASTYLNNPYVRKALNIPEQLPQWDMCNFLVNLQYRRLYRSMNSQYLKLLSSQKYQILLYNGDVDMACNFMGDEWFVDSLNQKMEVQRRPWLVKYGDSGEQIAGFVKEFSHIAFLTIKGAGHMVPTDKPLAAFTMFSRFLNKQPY
Assay type: biochemical
Outline: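 Human cathepsin A (res. 29-480, C-His10) pre-activated with cathepsin L (MES pH 6.0, DTT, 15 min, 37 °C; quenched with 10 μM E-64). Enzyme (833 ng/ml) preincubated 15 min RT with compound in MES pH 5.5/DTT, then 2 μM Bodipy FL-bradykinin for 15 min RT. Capillary electrophoresis product/substrate peak areas; IC50 from % inhibition.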
With O=C(O)C[C@H](NC(=O)c1cc(O)n(-c2ccccc2)n1)c1ccc(F)cc1 [Example 163] the IC50 was 100 to 1000 nM. With O=C(O)CC(NC(=O)c1cc(O)n(-c2ccc(F)cc2F)n1)c1ccc(OC(F)(F)F)cc1 (stereo not drawn) [Example 187] the IC50 was 100 to 1000 nM. O=C(O)CC(NC(=O)c1cc(O)n(-c2ccccc2F)n1)c1cccc(C(F)(F)F)c1Cl (stereo not drawn) [Example 245] was tested, and the IC50 was 100 to 1000 nM. For Cc1cc(F)ccc1C(CC(=O)O)NC(=O)c1cc(O)n(-c2ccc(F)cc2F)n1 (stereo not drawn) [Example 196], the IC50 was < 100 nM. Compound O=C(O)CC(NC(=O)c1cc(O)n(-c2cccc(Cl)c2)n1)c1ccc(-c2cccc(F)c2)cc1 (stereo not drawn) [Example 260] has an IC50 of 1000 to 30000 nM.

Same assay, conditions: read-out: Activity (2): Cathepsin A inhibitory activity (IC50 class)
In the case of Cc1ccccc1[C@H](CC(=O)O)NC(=O)c1cc(O)n(-c2cc(F)ccc2F)n1 [Example 599], the IC50 is reported as < 100 nM. In the case of Cc1ccccc1[C@H](CC(=O)O)NC(=O)c1cc(OCc2ccccc2)n(-c2ccccc2F)n1 [Example 651], the IC50 is reported as < 100 nM. Cc1ccccc1[C@H](CC(=O)O)NC(=O)c1cc(OC2CCCC2)n(-c2ccccc2F)n1 [Example 626] was tested, and the IC50 was < 100 nM. CC(C)(C)[C@@](C)(O)COc1cc(C(=O)N[C@@H](CC(=O)O)c2cccc(Cl)c2)nn1-c1ccccc1F [Example 774, (S)-3-(3-Chloro-phenyl)-3-{[1-(2-fluoro-phenyl)-5-((R)-2-hydroxy-2,3,3-trimethyl-butoxy)-1H-pyrazole-3-carbonyl]-amino}-propionic acid] was tested, and the IC50 was < 100 nM. For CCOc1cc(C(=O)NC(CC(=O)O)c2ccc(F)cc2)nn1-c1ccccc1F (stereo not drawn) [Example 719], the IC50 was 100 to 1000 nM. With COc1cc(C(=O)NC(CC(=O)O)c2cc(Cl)ccc2Cl)nn1-c1ccccc1F (stereo not drawn) [Example 683] the IC50 was < 100 nM. For COc1cc(C(=O)NC(CC(=O)O)c2cccc(C)c2C)nn1-c1ccccc1F (stereo not drawn) [Example 682, 3-(2,3-Dimethyl-phenyl)-3-{[1-(2-fluoro-phenyl)-5-methoxy-1H-pyrazole-3-carbonyl]-amino}-propionic acid], the IC50 was < 100 nM. For Cc1ccccc1[C@H](CC(=O)O)NC(=O)c1cc(OC[C@@](C)(O)C(C)(C)C)n(-c2ccccc2F)n1 (single isomer, unassigned) [Example 748], the IC50 was < 100 nM. In the case of CCOc1cc(C(=O)NC(CC(=O)O)c2ccc(F)cc2C)nn1-c1ccccc1Cl (stereo not drawn) [Example 738], the IC50 is reported as < 100 nM. In the case of Cc1ccc([C@H](CC(=O)O)NC(=O)c2cc(OC[C@@](C)(O)C(C)(C)C)n(-c3ccccc3F)n2)cc1 [Example 781, (S)-3-{[1-(2-Fluoro-phenyl)-5-((S)-2-hydroxy-2,3,3-trimethyl-butoxy)-1H-pyrazole-3-carbonyl]-amino}-3-p-tolyl-propionic acid], the IC50 is reported as < 100 nM. In the case of CCOc1cc(C(=O)NC(CC(=O)O)c2cccc(C)c2C)nn1-c1ccccc1F (stereo not drawn) [Example 723], the IC50 is reported as < 100 nM. CCOc1cc(C(=O)NC(CC(=O)O)c2ccc(OC)cc2Cl)nn1-c1ccccc1F (stereo not drawn) [Example 724] was tested, and the IC50 was < 100 nM. For COc1ccc(C(CC(=O)O)NC(=O)c2cc(OC)n(-c3ccccc3F)n2)c(C)c1 (stereo not drawn) [Example 672, 3-{[1-(2-Fluoro-phenyl)-5-methoxy-1H-pyrazole-3-carbonyl]-amino}-3-(4-methoxy-2-methyl-phenyl)-propionic acid], the IC50 was < 100 nM. In the case of CCOc1cc(C(=O)N[C@@H](CC(=O)O)c2ccccc2C)nn1-c1ccccc1F [Example 662], the IC50 is reported as < 100 nM. In the case of Cc1ccccc1[C@H](CC(=O)O)NC(=O)c1cc(OCc2ccncc2)n(-c2ccccc2F)n1 [Example 629], the IC50 is reported as < 100 nM.

Same assay, conditions: read-out: Activity (2): Cathepsin A inhibitory activity, IC50 class
Work on CC(C)(C)[C@@H](O)COc1cc(C(=O)N[C@@H](CC(=O)O)c2ccc(Cl)cc2)nn1-c1ccccc1F [Example 828, (S)-3-(4-Chloro-phenyl)-3-{[1-(2-fluoro-phenyl)-5-((R)-2-hydroxy-3,3-dimethyl-butoxy)-1H-pyrazole-3-carbonyl]-amino}-propionic acid] yielded an IC50 of 100 to 1000 nM. Compound O=C(O)C[C@H](NC(=O)c1cc(O)n(-c2ccc(F)cc2)n1)c1cccnc1 [Example 372] has an IC50 of 1000 to 30000 nM. COc1cccc([C@H](CC(=O)O)NC(=O)c2cc(O)n(-c3ccccc3Cl)n2)c1OC [Example 394] gave an IC50 of 100 to 1000 nM. COc1ccc(C(CC(=O)O)NC(=O)c2cc(O)n(-c3ccccc3)n2)c(C)c1C (stereo not drawn) [Example 25] gave an IC50 of 1000 to 30000 nM. O=C(O)CC(NC(=O)c1cc(O)n(-c2ccc(Cl)cc2)n1)c1cccc(C(F)(F)F)c1Cl (stereo not drawn) [Example 289] was tested, and the IC50 was 100 to 1000 nM. Compound O=C(O)CC(NC(=O)c1cc(O)n(-c2ccccc2)n1)C1CC1 (stereo not drawn) [Example 17] has an IC50 of 1000 to 30000 nM. In the case of N#Cc1cccc([C@H](CC(=O)O)NC(=O)c2cc(O)n(-c3ccc(Cl)cc3)n2)c1 [Example 271], the IC50 is reported as 1000 to 30000 nM. Compound CCCC(CC(=O)O)NC(=O)c1cc(O)n(-c2ccccc2)n1 (stereo not drawn) [Example 2] has an IC50 of 1000 to 30000 nM. Compound COc1cccc(-n2nc(C(=O)N[C@@H](CC(=O)O)c3ccccc3C)cc2O)c1 [Example 94] has an IC50 of 100 to 1000 nM. CC(C)[C@](C)(O)COc1cc(C(=O)NCC(C(=O)O)c2ccccc2)nn1-c1ccccc1F (stereo partly drawn) [Example 830, 3-{[1-(2-Fluoro-phenyl)-5-((S)-2-hydroxy-2,3-dimethyl-butoxy)-1H-pyrazole-3-carbonyl]-amino}-2-phenyl-propionic acid] showed an IC50 of 100 to 1000 nM. Compound O=C(O)CC(NC(=O)c1cc(O)n(-c2cccc(F)c2)n1)c1ccccc1F (stereo not drawn) [Example 308] has an IC50 of 100 to 1000 nM. In the case of O=C(O)C[C@H](NC(=O)c1cc(O)n(-c2ccccc2)n1)c1ccccc1F [Example 96], the IC50 is reported as 100 to 1000 nM. Compound COc1ccc(C(CC(=O)O)NC(=O)c2cc(O)n(-c3ccc(Cl)cc3)n2)c(OC)c1 (stereo not drawn) [Example 273] has an IC50 of 1000 to 30000 nM. In the case of O=C(O)C[C@H](NC(=O)c1cc(O)n(-c2ccc(Cl)cc2)n1)c1cccc(F)c1 [Example 279], the IC50 is reported as 1000 to 30000 nM. In the case of CC(C)(C)[C@](C)(O)COc1cc(C(=O)N[C@@H](CC(=O)O)c2cccc(F)c2)nn1-c1ccccc1F [Example 819, (S)-3-(3-Fluoro-phenyl)-3-{[1-(2-fluoro-phenyl)-5-((S)-2-hydroxy-2,3,3-trimethyl-butoxy)-1H-pyrazole-3-carbonyl]-amino}-propionic acid], the IC50 is reported as < 100 nM. With O=C(O)CC(NC(=O)c1cc(O)n(-c2ccccc2)n1)c1ccc(-c2ccccc2)cc1 (stereo not drawn) [Example 69] the IC50 was 100 to 1000 nM. COc1ccc(C(CC(=O)O)NC(=O)c2cc(O)n(-c3cc(C)ccc3C)n2)cc1 (stereo not drawn) [Example 27] showed an IC50 of 1000 to 30000 nM.

Same assay, conditions: recombinant human cathepsin A 833 ng/ml, Bodipy FL-labeled bradykinin 2 μM, pH 5.5; read-out: CATH-A IC50
In the case of Cc1ccc(F)cc1C(CC(=O)O)NC(=O)c1cc(O)n(-c2ccc(F)cc2)n1 (stereo not drawn) [Example 492, 3-(5-Fluoro-2-methyl-phenyl)-3-{[1-(4-fluoro-phenyl)-5-hydroxy-1H-pyrazole-3-carbonyl]-amino}-propionic acid], the IC50 is reported as 175 nM. For O=C(O)CC(NC(=O)c1cc(O)n(-c2ccc(F)cc2F)n1)c1cc(Cl)ccc1Cl (stereo not drawn) [Example 500, 3-(2,5-Dichloro-phenyl)-3-{[1-(2,4-difluoro-phenyl)-5-hydroxy-1H-pyrazole-3-carbonyl]-amino}-propionic acid], the IC50 was 86.3 nM. For Cc1c(F)cccc1C(CC(=O)O)NC(=O)c1cc(O)n(-c2cccc(Cl)c2)n1 (stereo not drawn) [Example 508, 3-{[1-(3-Chloro-phenyl)-5-hydroxy-1H-pyrazole-3-carbonyl]-amino}-3-(3-fluoro-2-methyl-phenyl)-propionic acid], the IC50 was 137 nM. In the case of Cc1ccccc1[C@H](CC(=O)O)NC(=O)c1cc(OC[C@@](C)(O)C(C)(C)C)n(-c2ccccc2F)n1 (single isomer, unassigned) [Example 748], the IC50 is reported as 2.56 nM. In the case of O=C(O)C[C@H](NC(=O)c1cc(O)n(-c2ccccc2Cl)n1)c1ccccc1Cl [Example 507, (S)-3-(2-Chloro-phenyl)-3-{[1-(2-chloro-phenyl)-5-hydroxy-1H-pyrazole-3-carbonyl]-amino}-propionic acid], the IC50 is reported as 161 nM. Work on CN(C)c1ccc(C(CC(=O)O)NC(=O)c2cc(O)n(-c3cccc(Cl)c3)n2)c(Cl)c1 (stereo not drawn) [Example 463, 3-(2-Chloro-4-dimethylamino-phenyl)-3-{[1-(3-chloro-phenyl)-5-hydroxy-1H-pyrazole-3-carbonyl]-amino}-propionic acid] yielded an IC50 of 11100 nM. O=C(O)CC(NC(=O)c1cc(O)n(-c2ccc(F)cc2)n1)c1cc(Cl)ccc1Cl (stereo not drawn) [Example 493, 3-(2,5-Dichloro-phenyl)-3-{[1-(4-fluoro-phenyl)-5-hydroxy-1H-pyrazole-3-carbonyl]-amino}-propionic acid] gave an IC50 of 246 nM. For COc1ccc(F)cc1C(CC(=O)O)NC(=O)c1cc(O)n(-c2ccc(F)cc2)n1 (stereo not drawn) [Example 525, 3-(5-Fluoro-2-methoxy-phenyl)-3-{[1-(4-fluoro-phenyl)-5-hydroxy-1H-pyrazole-3-carbonyl]-amino}-propionic acid], the IC50 was 1510 nM.

Same assay, conditions: recombinant human cathepsin A; read-out: Activity (2): Cathepsin A inhibitory activity, IC50 class
Compound Cc1ccc(F)cc1C(CC(=O)O)NC(=O)c1cc(O)n(-c2ccc(F)cc2)n1 (stereo not drawn) [Example 492, 3-(5-Fluoro-2-methyl-phenyl)-3-{[1-(4-fluoro-phenyl)-5-hydroxy-1H-pyrazole-3-carbonyl]-amino}-propionic acid] has an IC50 of 100 to 1000 nM. COc1cccc([C@H](CC(=O)O)NC(=O)c2cc(O)n(-c3cccc(F)c3)n2)c1OC [Example 431] gave an IC50 of 100 to 1000 nM. Work on COc1cccc([C@H](CC(=O)O)NC(=O)c2cc(O)n(-c3cccc(Cl)c3)n2)c1OC [Example 417] yielded an IC50 of 100 to 1000 nM. O=C(O)CC(NC(=O)c1cc(O)n(-c2ccc(F)cc2F)n1)c1cc(Cl)ccc1Cl (stereo not drawn) [Example 500, 3-(2,5-Dichloro-phenyl)-3-{[1-(2,4-difluoro-phenyl)-5-hydroxy-1H-pyrazole-3-carbonyl]-amino}-propionic acid] was tested, and the IC50 was < 100 nM. Cc1c(F)cccc1C(CC(=O)O)NC(=O)c1cc(O)n(-c2cccc(Cl)c2)n1 (stereo not drawn) [Example 508, 3-{[1-(3-Chloro-phenyl)-5-hydroxy-1H-pyrazole-3-carbonyl]-amino}-3-(3-fluoro-2-methyl-phenyl)-propionic acid] gave an IC50 of 100 to 1000 nM. O=C(O)C[C@H](NC(=O)c1cc(O)n(-c2ccccc2Cl)n1)c1ccccc1Cl [Example 507, (S)-3-(2-Chloro-phenyl)-3-{[1-(2-chloro-phenyl)-5-hydroxy-1H-pyrazole-3-carbonyl]-amino}-propionic acid] gave an IC50 of 100 to 1000 nM. CN(C)c1ccc(C(CC(=O)O)NC(=O)c2cc(O)n(-c3cccc(Cl)c3)n2)c(Cl)c1 (stereo not drawn) [Example 463, 3-(2-Chloro-4-dimethylamino-phenyl)-3-{[1-(3-chloro-phenyl)-5-hydroxy-1H-pyrazole-3-carbonyl]-amino}-propionic acid] showed an IC50 of 1000 to 30000 nM. For O=C(O)CC(NC(=O)c1cc(O)n(-c2ccc(F)cc2)n1)c1cc(Cl)ccc1Cl (stereo not drawn) [Example 493, 3-(2,5-Dichloro-phenyl)-3-{[1-(4-fluoro-phenyl)-5-hydroxy-1H-pyrazole-3-carbonyl]-amino}-propionic acid], the IC50 was 100 to 1000 nM. In the case of COc1ccc(F)cc1C(CC(=O)O)NC(=O)c1cc(O)n(-c2ccc(F)cc2)n1 (stereo not drawn) [Example 525, 3-(5-Fluoro-2-methoxy-phenyl)-3-{[1-(4-fluoro-phenyl)-5-hydroxy-1H-pyrazole-3-carbonyl]-amino}-propionic acid], the IC50 is reported as 1000 to 30000 nM.
